In patent US8404721B2, “Compositions and methods for treating seizure disorders” (Allergan, Inc., priority 2009, dated 2013):

Tested on: Male C57B/6 mice
Assay: Pentylenetetrazol (PTZ)-induced convulsions in mice
Type: in vivo
Details: for Latency to first convulsion: convulsion level 3 or higher; for Number of events Myoclonic: level 3+level 4 events; for Number of events Myoclonic / Number of events Clonic / Number of events Tonic-Clonic: scored 10 minutes; for Number of events Clonic: level 5 events; for Number of events Tonic-Clonic: level 6+level 7 events
Method: Male C57B/6 mice (20-25 g) were administered intraperitoneal Compound A (1 mg/kg), Compound B (1 or 10 mg/kg), Compound C (1 mg/kg), diazepam (0.5 mg/kg), gabapentin (50 mg/kg), or vehicle (ddH 2O) prior to treatment with pentylenetetrazol (PTZ, 50 mg/kg IP). Compounds A, B, C, and gabapentin were administered 60 minutes before, and diazepam or vehicle was administered 30 minutes before PTZ. Immediately following PTZ injection, mice were individually placed in an observation cage and the latency to onset of first convulsion (level 3 or higher; Table 2) was recorded, as well as the number of each type of convulsion (see Table 2 for scoring method modified from the scale used by Rizwan et al, Pol. J. Pharmacol., 55(6):965-71 (2003)).
Level I and 2 behaviors were not considered convulsions, but were scored to keep track of any possible sedative or abnormal effect following drug treatment.
Data are expressed as the number of myoclonic convulsions (level 3+level 4 events), number of clonic convulsions (level 5 events), and number of tonic-clonic events (level 6+level 7 events; Table 3-1), as well as the latency to first convulsion onset (in seconds). The sum of each convulsion type/mouse (myclonic, clonic, or clonic-tonic) was entered into GraphPad Prism and analyzed by One-Way ANOVA with post-hoc Dunnett's Multiple Comparisons Tests relative to vehicle+PTZ. Overall significance was established when P<0.0125 (corrected for number of groups). Post-hoc comparisons were considered significant when P<0.05.

[1] = 1 mg/kg intraperitoneal, 60 minutes before PTZ 50 mg/kg IP
[2] = 10 mg/kg intraperitoneal, 60 minutes before PTZ 50 mg/kg IP
[3] = 0.5 mg/kg intraperitoneal, 30 minutes before PTZ 50 mg/kg IP
[4] = 50 mg/kg intraperitoneal, 60 minutes before PTZ 50 mg/kg IP

Row | Structure (SMILES) | Latency to first convulsion [1] | Number of events Myoclonic [1] | Number of events Clonic [1] | Number of events Tonic-Clonic [1] | also measured
1 | NC(C(=O)N1CCCC1)C(O)c1ccncc1 (racemic) [Compound A] | 342.8 ± 76.7 s | 1.40 ± 0.4 | 0.2 ± 0.1 | 0.5 ± 0.2 | 
2 | N[C@@H](C(=O)N1CCCC1)[C@@H](O)c1ccncc1 [Compound B] | 208.8 ± 84.29 s | 0.83 ± 0.31 | 0.83 ± 0.17 | 0.0 ± 0.0 | Latency to first convulsion [2]: 308.9 ± 92.55 s; Number of events Myoclonic [2]: 0.17 ± 0.17; Number of events Clonic [2]: 0.50 ± 0.22; Number of events Tonic-Clonic [2]: 0.33 ± 0.21
3 | N[C@@H](C(=O)N1CCCC1)[C@@H](O)c1ccc(F)cc1 [Compound C] | 367.1 ± 78.30 s | 2.00 ± 1.02 | 0.10 ± 0.10 | 0.0 ± 0.0 | 
4 | CN1C(=O)CN=C(c2ccccc2)c2cc(Cl)ccc21 [Diazepam, reference compound] |  |  |  |  | Latency to first convulsion [3]: 546.4 ± 53.60 s; Number of events Myoclonic [3]: 0.0 ± 0.0; Number of events Clonic [3]: 0.0 ± 0.0; Number of events Tonic-Clonic [3]: 0.60 ± 0.60
5 | NCC1(CC(=O)O)CCCCC1 [Gabapentin, reference compound] |  |  |  |  | Latency to first convulsion [4]: 194.8 ± 30.41 s; Number of events Myoclonic [4]: 1.20 ± 0.55; Number of events Clonic [4]: 0.90 ± 0.18; Number of events Tonic-Clonic [4]: 0.20 ± 0.13
